Experimental data as given in US20230174538A1, “Tricyclic heterocycles” (Merck Patent GmbH, priority 2020, published 2023).

These compounds were tested on YAP-TEAD interaction (assay: SK-HEP-1 reporter assay (8xTEAD responsive elements driving NanoLuc luciferase)). Details: Homo sapiens, SK-HEP1, SK-HEP-1 reporter assay.
Type: cell-based
Experimental: To identify inhibitors of YAP-TEAD interaction, 8×TEAD responsive elements driving the NanoLuc® luciferase gene were stably integrated into SK-HEP-1 cells (ECACC #: 91091816).
For the assay, cells were treated in duplicates with the test compounds in a 10-point dose, with the top concentration starting at 30 μM (final concentration in assay). After a 24 hour incubation at 37° C., 95% rH, and 5% CO2, a luciferase substrate/lysis reagent mix (NanoGlo™, Promega) was added to the cells, allowing the quantification of cellular luciferase activity.
Cell Media: The cells were cultured in the following media: MEM, +10% FBS, +1× GlutaMAX, +1 mM Sodium-Pyruvate, +100 μM Non-essential amino acids, +0.1 mg/ml Hygromycin. The media used for the assay was: MEM (w/o Phenol Red), +10% FBS, +1× GlutaMAX, +1 mM Sodium-Pyruvate, +100 μM Non-essential amino acids, +0.5% Pen/Strep
Reagents: The reagents used are listed below:
Cell culture: The cells were examined using an inverted microscope to check for health and cell density. To dissociate adherent cells, the monolayer of cells was washed once with pre-warmed PBS. After removing the PBS, 3 ml pre-warmed Accutase® was added to a F75 flask, dispersed evenly and the flask was allowed to sit in incubator for ˜4-5 minutes.
When a single cell suspension was obtained, 7 ml of prewarmed growth media was added and resuspended with the cells. The cell suspension was transferred to a sterile 15 ml conical centrifuge tube, and spun for 5 min at 300×g, RT. The supernatant was discarded and the pellet was resuspended in 10 ml of pre-warmed growth media.
The total cell count was determined, and 20 μl of the desired cell number was added to each well of a 384 well plate using a Multidrop Combi. The plates were then incubated for 24 hours at 37° C., 95% rH, and 5% CO2.
Compound treatment: 24 hours after seeding, the cells were treated with compounds.
A 1:333 dilution of compounds, diluted in DMSO, was made to get a final concentration of 0.3% DMSO per well. To transfer the compounds to the assay plate, 120 nl was shot from Labcyte low dead volume plates to the cell plates containing 20 μl media/well with the ECHO 555 liquid handling system.
After treatment, the cells were fed with 20 μl fresh pre-warmed assay media using a Multidrop combi.
The assay plates were then incubated for another 24 h at 37° C., 95% rH, and 5% CO2.
Luciferase readout: 24 h after treatment, the plates were taken out of the incubator and were allowed to equilibrate to RT. 30 μl of NanoGlo® reagent was added to the plates in the dark. Plates were shaken for 20 min on a Teleshake (˜1500 rpm) in the dark. The luminescence was then measured using an EnVision microplate reader. The IC50 values were generated using Genedata Screener®.

Row | IC50 [nM] | SMILES
1 | 100 to 10000 | Cn1cc2c3cc(C(=O)NC4CCc5cn[nH]c5C4)ccc3n(-c3ccc(C(F)(F)F)cc3)c2n1 (centres unmarked) [Example B25, 2-methyl-N-(4,5,6,7-tetrahydro-1H-indazol-6-yl)-8-[4-(trifluoromethyl)phenyl]-2H,8H-pyrazolo[3,4-b]indole-5-carboxamide]
2 | 100 to 10000 | CN(C)c1noc(CCNC(=O)c2ccc3c(c2)c2cn(C)nc2n3-c2ccc(C(F)(F)F)cc2)n1 [B120^]
3 | > 10000 | Cn1cc2c3cc(C(=O)N4CCCC(OCC5CC5)C4)ccc3n(-c3ccc(C(F)(F)F)cc3)c2n1 (centres unmarked) [Example B62, 3-(cyclopropylmethoxy)-1-{2-methyl-8-[4-(trifluoromethyl)phenyl]-2H,8H-pyrazolo[3,4-b]indole-5-carbonyl}piperidine]
4 | > 10000 | Cc1ccnn1CC(C)CNC(=O)c1ccc2c(c1)c1cn(C)nc1n2-c1ccc(C(F)(F)F)cc1 (centres unmarked) [B106^]
5 | 10 to 100 | CC(CCn1cncn1)NC(=O)c1ccc2c(c1)c1cn(C)nc1n2-c1ccc(C(F)(F)F)cc1 (centres unmarked) [Example B90, 2-methyl-N-[4-(1H-1,2,4-triazol-1-yl)butan-2-yl]-8-[4-(trifluoromethyl)phenyl]-2H,8H-pyrazolo[3,4-b]indole-5-carboxamide]
6 | 100 to 10000 | Cn1cc2c3cc(C(=O)NC4(c5nnc[nH]5)CC4)ccc3n(-c3ccc(C(F)(F)F)cc3)c2n1 [B134^]
7 | 100 to 10000 | Cn1cc2c3cc(C(=O)N4CC(CO)(n5cccn5)C4)ccc3n(-c3ccc(C(F)(F)F)cc3)c2n1 [B130^]
8 | 100 to 10000 | Cn1cc2c3cc(C(=O)N[C@@H]4COC5(CCC5)[C@H]4O)ccc3n(-c3ccc(C(F)(F)F)cc3)c2n1 (relative stereo) [Example B23, N-[(7R,8S)-8-hydroxy-5-oxaspiro[3.4]octan-7-yl]-2-methyl-8-[4-(trifluoromethyl)phenyl]-2H,8H-pyrazolo[3,4-b]indole-5-carboxamide]
9 | 1 to 10 | Cn1cc2c3cc(C(=O)NCc4ccc(F)c(CO)c4)ccc3n(-c3ccc(C(F)(F)F)cc3)c2n1 [Example B19, N-{[4-fluoro-3-(hydroxymethyl)-phenyl]methyl}-2-methyl-8-[4-(trifluoromethyl)phenyl]-2H,8H-pyrazolo[3,4-b]indole-5-carboxamide]
10 | 100 to 10000 | CO[C@@H]1CCOC[C@H]1NC(=O)c1ccc2c(c1)c1cn(C)nc1n2-c1ccc(C(F)(F)F)cc1 [B131^]
11 | 10 to 100 | COCC(NC(=O)c1ccc2c(c1)c1cn(C)nc1n2-c1ccc(C(F)(F)F)cc1)c1ccc(C)o1 (centres unmarked) [Example B34, N-[2-methoxy-1-(5-methylfuran-2-yl)ethyl]-2-methyl-8-[4-(trifluoromethyl)phenyl]-2H,8H-pyrazolo[3,4-b]indole-5-carboxamide]
12 | 100 to 10000 | Cn1cc2c3cc(C(=O)NC4C5CCOC5C4(C)C)ccc3n(-c3ccc(C(F)(F)F)cc3)c2n1 (centres unmarked) [Example B87, N-(7,7-dimethyl-2-oxabicyclo[3.2.0]heptan-6-yl}-2-methyl-8-[4-(trifluoromethyl)phenyl]-2H,8H-pyrazolo[3,4-b]indole-5-carboxamide]
13 | 10 to 100 | COCc1ocnc1CNC(=O)c1ccc2c(c1)c1cn(C)nc1n2-c1ccc(C(F)(F)F)cc1 [Example B49, N-{[5-(methoxymethyl)-1,3-oxazol-4-yl]methyl}-2-methyl-8-[4-(trifluoromethyl)phenyl]-2H,8H-pyrazolo[3,4-b]indole-5-carboxamide]
14 | > 10000 | CCOC1CC(N(C)C(=O)c2ccc3c(c2)c2cn(C)nc2n3-c2ccc(C(F)(F)F)cc2)C1(C)C (centres unmarked) [Example B99, N-(3-ethoxy-2,2-dimethylcyclobutyl)-N,2-dimethyl-8-[4-(trifluoromethyl)phenyl]-2H,8H-pyrazolo[3,4-b]indole-5-carboxamide]
15 | > 10000 | CCC(NC(=O)c1ccc2c(c1)c1cn(C)nc1n2-c1ccc(C(F)(F)F)cc1)c1ncc[nH]1 (centres unmarked) [Example B7, N-[1-(1H-imidazol-2-yl)propyl]-2-methyl-8-[4-(trifluoromethyl)phenyl]-2H,8H-pyrazolo[3,4-b]indole-5-carboxamide]
16 | 100 to 10000 | Cn1cc2c3cc(C(=O)NCC4(N5CCOCC5)CC4)ccc3n(-c3ccc(C(F)(F)F)cc3)c2n1 [Example B42, 2-methyl-N-{[1-(morpholin-4-yl)cyclopropyl]methyl}-8-[4-(trifluoromethyl)phenyl]-2H,8H-pyrazolo[3,4-b]indole-5-carboxamide]

Row | IC50 [nM] | SMILES
17 | 100 to 10000 | Cn1cc2c3cc(C(=O)NCc4cncn4CCF)ccc3n(-c3ccc(C(F)(F)F)cc3)c2n1 [Example B82, N-{[1-(2-fluoroethyl)-1H-imidazol-5-yl]methyl}-2-methyl-8-[4-(trifluoromethyl)phenyl]-2H,8H-pyrazolo[3,4-b]indole-5-carboxamide]
18 | 100 to 10000 | CCn1cc(CCNC(=O)c2ccc3c(c2)c2cn(C)nc2n3-c2ccc(C(F)(F)F)cc2)nn1 [B105^]
19 | 10 to 100 | Cn1cc2c3cc(C(=O)NCCc4ocnc4CO)ccc3n(-c3ccc(C(F)(F)F)cc3)c2n1 [Example B67, N-{2-[4-(hydroxymethyl)-1,3-oxazol-5-yl]ethyl}-2-methyl-8-[4-(trifluoromethyl)phenyl]-2H,8H-pyrazolo[3,4-b]indole-5-carboxamide]
20 | 10 to 100 | Cn1cc2c3cc(C(=O)NC4(Cc5nc[nH]n5)CC4)ccc3n(-c3ccc(C(F)(F)F)cc3)c2n1 [Example B80, 2-methyl-N-{1-[(1H-1,2,4-triazol-3-yl)methyl]cyclopropyl}-8-[4-(trifluoromethyl)phenyl]-2H,8H-pyrazolo[3,4-b]indole-5-carboxamide]
21 | > 10000 | Cc1nccc(C2(NC(=O)c3ccc4c(c3)c3cn(C)nc3n4-c3ccc(C(F)(F)F)cc3)CC2)n1 [Example B69, 2-methyl-N-[1-(2-methylpyrimidin-4-yl)cyclopropyl]-8-[4-(trifluoromethyl)phenyl]-2H,8H-pyrazolo[3,4-b]indole-5-carboxamide]
22 | 100 to 10000 | Cn1cc2c3cc(C(=O)N4CCC[C@@H]4CCCO)ccc3n(-c3ccc(C(F)(F)F)cc3)c2n1 (single isomer, unassigned) [Example B18]
23 | 100 to 10000 | Cn1cc2c3cc(C(=O)NC(CO)c4ccccn4)ccc3n(-c3ccc(C(F)(F)F)cc3)c2n1 (racemic) [Example 29, N-[2-hydroxy-1-(pyridin-2-yl)ethyl]-2-methyl-8-[4-(trifluoromethyl)phenyl]-2H,8H-pyrazolo[3,4-b]indole-5-carboxamide]
24 | 100 to 10000 | CC1COC(CO)CN1C(=O)c1ccc2c(c1)c1cn(C)nc1n2-c1ccc(C(F)(F)F)cc1 (centres unmarked) [Example B72, (5-methyl-4-{2-methyl-8-[4-(trifluoromethyl)phenyl]-2H,8H-pyrazolo[3,4-b]indole-5-carbonyl}morpholin-2-yl)methanol]
25 | 100 to 10000 | Cn1cc2c3cc(C(=O)NCCc4cc(O)no4)ccc3n(-c3ccc(C(F)(F)F)cc3)c2n1 [B113^]
26 | 10 to 100 | Cn1cc2c3cc(C(=O)NC4CCCn5nccc54)ccc3n(-c3ccc(C(F)(F)F)cc3)c2n1 (centres unmarked) [Example B76, 2-methyl-N-(4H,5H,6H,7H-pyrazolo[1,5-a]pyridin-4-yl}-8-[4-(trifluoromethyl)phenyl]-2H,8H-pyrazolo[3,4-b]indole-5-carboxamide]
27 | > 10000 | Cc1cc(CC(C)NC(=O)c2ccc3c(c2)c2cn(C)nc2n3-c2ccc(C(F)(F)F)cc2)n[nH]1 (centres unmarked) [B101^]
28 | 10 to 100 | CCCc1nc(C)c(CNC(=O)c2ccc3c(c2)c2cn(C)nc2n3-c2ccc(C(F)(F)F)cc2)o1 [B124^]
29 | 100 to 10000 | Cn1cc2c3cc(C(=O)N4CCC(O)(c5c[nH]nn5)C4)ccc3n(-c3ccc(C(F)(F)F)cc3)c2n1 (centres unmarked) [Example B74, 1-(2-methyl-8-[4-(trifluoromethyl)phenyl]-2H,8H-pyrazolo[3,4-b]indole-5-carbonyl}-3-(1H-1,2,3-triazol-4-yl)pyrrolidin-3-ol]
30 | 10 to 100 | CCC(NC(=O)c1ccc2c(c1)c1cn(C)nc1n2-c1ccc(C(F)(F)F)cc1)c1c(C)noc1C (centres unmarked) [Example B71, N-[1-(3,5-dimethyl-1,2-oxazol-4-yl)propyl]-2-methyl-8-[4-(trifluoromethyl)phenyl]-2H,8H-pyrazolo[3,4-b]indole-5-carboxamide]
31 | 100 to 10000 | Cn1cc2c3cc(C(=O)N[C@H]4c5ccccc5C[C@@H]4O)ccc3n(-c3ccc(C(F)(F)F)cc3)c2n1 (single isomer, unassigned) [Example B2]

Row | SMILES | IC50 [nM]
32 | Cn1cc2c3cc(NC(=O)CCl)ccc3n(-c3ccc(C(F)(F)F)cc3)c2n1 [Example 23, 2-chloro-N-[2-methyl-8-[4-(trifluoromethyl)phenyl]pyrazolo[3,4-b]indol-5-yl]acetamide] | > 10000
